What was measured:
[1] = tested on: PMA stimulated ERK activity (RSK-1 phosphorylation); test: Phase I study: pharmacodynamic target inhibition (pRSK in patient whole blood); format: in vivo; conditions: Homo sapiens, 360 h, prior to Day 15 dosing
A375 xenografts = test: Antitumor activity in A375 xenografts, monotherapy; format: in vivo, mice; conditions: 14 days
Experimental: For measurement of antitumor activity in A375 xenografts, xenografts were initiated with A375 cells maintained by serial subcutaneous transplantation in female athymic nude mice. Each test mouse received an A375 tumor fragment (1 mm^3) implanted subcutaneously in the right flank. Once tumors reached target size (80-120 mm^3), animals were randomized into treatment and control groups, and drug treatment was initiated.
Oral temozolomide was administered as a positive reference compound at 75 or 175 mg/kg once daily (QD) for a total of five treatments (QD×5).

CDK6/cycinD3 = CDK6/cycinD3 (Homo sapiens, UniProt Q00534); test: Kinase counter-screen, Ki; format: biochemical; conditions: apparent Ki
CDK6/cycinD3, sequence (Q00534 whole entry, species assumed): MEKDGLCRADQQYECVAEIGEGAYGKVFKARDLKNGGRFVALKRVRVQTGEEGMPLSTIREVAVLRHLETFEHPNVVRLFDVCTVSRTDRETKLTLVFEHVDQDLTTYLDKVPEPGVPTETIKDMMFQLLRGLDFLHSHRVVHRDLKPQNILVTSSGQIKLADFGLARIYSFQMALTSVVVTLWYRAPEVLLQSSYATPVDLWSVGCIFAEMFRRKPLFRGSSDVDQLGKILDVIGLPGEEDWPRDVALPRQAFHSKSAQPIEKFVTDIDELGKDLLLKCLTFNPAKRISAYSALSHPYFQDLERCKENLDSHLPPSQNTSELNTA
CDK6/cycinD3, sequence (P30281 whole entry partner, species assumed): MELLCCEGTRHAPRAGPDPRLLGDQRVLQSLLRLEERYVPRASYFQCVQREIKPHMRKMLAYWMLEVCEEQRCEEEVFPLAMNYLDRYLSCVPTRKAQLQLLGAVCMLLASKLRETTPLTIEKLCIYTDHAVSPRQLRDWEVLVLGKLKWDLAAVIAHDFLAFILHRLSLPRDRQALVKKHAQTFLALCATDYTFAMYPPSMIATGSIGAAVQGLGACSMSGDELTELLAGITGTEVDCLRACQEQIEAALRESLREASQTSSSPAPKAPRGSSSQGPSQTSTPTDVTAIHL
Text: (§1) The ATP concentrations were approximately equal to the Km in all assays.

ROCKII = ROCKII (Homo sapiens, UniProt O75116); test: Kinase counter-screen, Ki; format: biochemical; conditions: apparent Ki
ROCKII, sequence (O75116 whole entry, species assumed): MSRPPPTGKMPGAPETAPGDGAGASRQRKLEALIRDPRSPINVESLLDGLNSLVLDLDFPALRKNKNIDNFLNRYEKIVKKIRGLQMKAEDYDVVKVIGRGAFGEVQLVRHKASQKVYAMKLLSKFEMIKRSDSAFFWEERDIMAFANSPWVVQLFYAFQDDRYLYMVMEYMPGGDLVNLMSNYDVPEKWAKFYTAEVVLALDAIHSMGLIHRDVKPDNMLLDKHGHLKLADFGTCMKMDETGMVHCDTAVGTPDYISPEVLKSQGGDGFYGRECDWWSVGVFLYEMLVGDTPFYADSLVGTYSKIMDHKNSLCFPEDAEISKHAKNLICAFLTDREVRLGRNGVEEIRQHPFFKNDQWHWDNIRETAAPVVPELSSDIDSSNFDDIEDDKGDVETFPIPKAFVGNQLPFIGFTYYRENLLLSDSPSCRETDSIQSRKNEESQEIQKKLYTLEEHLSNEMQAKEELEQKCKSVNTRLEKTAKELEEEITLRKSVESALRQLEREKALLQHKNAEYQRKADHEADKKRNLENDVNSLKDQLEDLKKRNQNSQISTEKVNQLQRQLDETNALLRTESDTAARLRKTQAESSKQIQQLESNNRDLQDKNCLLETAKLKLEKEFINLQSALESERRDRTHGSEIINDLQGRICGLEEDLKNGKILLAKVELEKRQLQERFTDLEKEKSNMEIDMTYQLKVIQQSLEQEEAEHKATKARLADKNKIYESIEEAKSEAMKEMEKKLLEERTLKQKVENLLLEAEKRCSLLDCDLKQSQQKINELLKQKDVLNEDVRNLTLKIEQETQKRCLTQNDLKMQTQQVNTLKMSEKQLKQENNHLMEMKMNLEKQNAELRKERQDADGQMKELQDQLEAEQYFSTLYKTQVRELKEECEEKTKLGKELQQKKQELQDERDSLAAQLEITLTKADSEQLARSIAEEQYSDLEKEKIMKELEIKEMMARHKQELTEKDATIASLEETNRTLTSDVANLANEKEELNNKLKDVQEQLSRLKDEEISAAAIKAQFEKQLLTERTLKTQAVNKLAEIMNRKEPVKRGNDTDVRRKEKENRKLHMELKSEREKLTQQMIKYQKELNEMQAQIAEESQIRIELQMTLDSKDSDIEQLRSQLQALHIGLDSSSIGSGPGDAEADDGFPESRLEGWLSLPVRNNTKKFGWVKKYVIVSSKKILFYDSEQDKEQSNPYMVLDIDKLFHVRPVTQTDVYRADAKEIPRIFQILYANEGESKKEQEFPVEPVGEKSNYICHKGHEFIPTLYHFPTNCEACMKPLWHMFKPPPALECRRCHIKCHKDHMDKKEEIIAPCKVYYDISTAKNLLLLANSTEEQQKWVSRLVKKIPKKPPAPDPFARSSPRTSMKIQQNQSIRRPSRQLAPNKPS
Text: as §1

Question: With `CC(C)Nc1cc(-c2c[nH]c(C(=O)N[C@H](CO)c3cccc(Cl)c3)c2)c(Cl)cn1` [BVD-523] as the molecule, how does the inhibition at 10 mg ([1]; 10 mg BID) read?
Answer: 0%

Question: And the inhibition at 900 mg ([1]; 900 mg BID)?
Answer: 93 ± 8%

Question: What about the “tumor growth inhibition (TGI)” value (A375 xenografts; 50 mg/kg BID p.o.) of the same molecule?
Answer: 71%

Question: And the “tumor growth inhibition (TGI)” value (A375 xenografts; 100 mg/kg BID p.o.)?
Answer: 99%

Question: And the Ki (CDK6/cycinD3)?
Answer: 90 nM

Question: And the Ki (ROCKII)?
Answer: 270 nM

Reference: patent publication US20210038587A1, “METHODS AND COMPOSITIONS FOR TREATING NON-ERK MAPK PATHWAY INHIBITOR-RESISTANT CANCERS” (BIOMED VALLEY DISCOVERIES, INC., priority 2013, published 2021)
